Measured values from US20210220340A1, “COMPOSITION FOR PREVENTION OR TREATMENT OF NEURODEGENERATIVE DISEASE” (THE ASAN FOUNDATION, priority 2018, published 2021).

Columns and labels:
cathepsin B = test: Lysosomal function activity in astrocytes: degree of hydrolysis of cathepsin B; type: cell-based, mouse; details: bafilomycin A1-treated mouse astrocytes
Method: (§1) Samples stained with enzymatic dyes such as cathepsin B and cathepsin L were administered into the cell culture to allow a reaction for 30 minutes, and changes in activity of lysosomes in cells were confirmed using a confocal microscope.
(§2) Astrocytes were stained with a fluorescence-tagged lysosomal protein, and the degrees of hydrolysis of cathepsin B and cathepsin L, which are lysosomal proteins, were analyzed.
(§3) FIG. 21 is a set of time-dependent confocal microscope images of mouse astrocytes, which are treated with bafilomycin A1, which is a vATPase inhibitor, to assess the degree of hydrolysis of cathepsin B (top) and cathepsin L (bottom).

PDE3 = test: HTS drug screening for PDE3 (PDELight HTS cAMP Phosphodiesterase Kit, luminescence); type: biochemical; details: compared with conventional drugs
Method: For drug screening, high-throughput screening (HTS) was used.
In addition, as described above, in the present invention, to screen materials for treating neurodegenerative diseases such as Alzheimer's disease and Lou Gehrig's disease, among PDE isoforms, PDE3 was selected as a target, and an optimized concentration to be used in the experiment was selected to construct a drug screening system as shown in FIG. 9.
(§4) Compounds included in the library of 800 FDA-approved drugs were diluted 1/4 from a concentration of 100 μM and dispensed into each well in 96-well plates, and mixed with a PDE reactant to allow a PDE reaction with the drug for 1 hour at a constant temperature.
For drug efficacy screening for PDE inhibition, HTS was used. cAMP-based screening was conducted with an FDA-approved drug library and a Selleckchem library based on the conventional PDE inhibitor. The experiment was carried out in the same manner as used in screening of the FDA-approved drug library. Compared with cilostazol, which is known as a PDE3 inhibitor, drugs with high inhibitory activity were selected. […] After a stop solution was mixed with a AMP detection agent, the mixture was dispensed at 20 μl per well to allow a reaction for 10 minutes, followed by immediately measuring luminescence, and the experiment was performed according to a protocol provided by the kit used herein.

GFP-tagged mHttQ protein = test: GFP-mHttQ aggregation (GFP antibody); type: cell-based; details: cells injected with GFP-tagged mHttQ protein, AMX
Method: A GFP-tagged mHttQ protein was injected into cells, thereby confirming a pharmacological reaction mediated by AMX using a GFP antibody. The accumulation of mHttQ in cells through aggregation was confirmed by GFP expression.

cathepsin L = test: Lysosomal function activity in astrocytes: degree of hydrolysis of cathepsin L; type: cell-based, mouse; details: bafilomycin A1-treated mouse astrocytes
Method: as §1, §2, §3

all PDE isoforms = test: HTS using all PDE isoforms as targets; type: biochemical
Method: as §4
The experiment was carried out in the same manner as used in screening of the FDA-approved drug library. […] Each of the screening library drugs were diluted 1/4 from 100 μM and dispensed into each well in 96-well plates, and mixed with a PDE reactant, followed by allowing a reaction between the drug and PDE for 1 hour for storage. After a stop solution was mixed with a AMP detection agent, the mixture was dispensed at 20 μl per well to allow a reaction for 10 minutes, followed by immediately measuring luminescence, and the experiment was performed according to a protocol provided by the kit used herein.
The first selection started with PDE3 as a target, and after candidate drugs were selected, all PDE isoforms were tested.

P301L tau = test: Tau accumulation on AMX treatment (western blotting); type: cell-based
Method: (§5) Each type of cell was cultured under the culture conditions, a cell culture was restored, followed by preparing a particulate fraction in a 50 mM Tris buffer. Proteins obtained from the cell culture developed in a SDS polyacrylamide gel, transferred to an immobilon-P membrane (Millipore, USA), and reacted with antibodies overnight. Next day, western blots were washed, reacted with peroxidase-linked secondary antibodies at room temperature for 1 hour, followed by staining bands with 4-chloro-1-naphthol.
(§6) FIG. 16 is a graph representing the percent activity (% activity) according to the concentrations of finally selected amlexanox (AMX) for various PDE isoforms, and FIGS. 17 and 18 show western blotting images representing the amyloid beta expression pattern and G93A SOD-1 and P301L tau expression when amyloid beta-accumulated pericytes and astrocytes are treated with the finally selected amlexanox (AMX).

[1] = system: amyloid beta-accumulated pericytes and astrocytes; test: Amyloid beta expression pattern on AMX treatment (western blotting); type: cell-based, mouse; details: amyloid beta injected and accumulated in pericytes and astrocytes, then AMX
Method: For astrocyte culture, first, cerebral cortices (neocortices) were dissociated from murine fetuses (3 weeks old), and the obtained cortical tissue was divided into single cells. […] New cells were cultured and used each time without passaging.
as §5, §6

5×FAD mice = test: Morris water maze test (hidden platform test and probe test) in Alzheimer's disease animal model; type: in vivo, mouse
Method: To confirm whether amlexanox (AMX; Z007) is effective even for animal models, an experiment was conducted using 5×FAD mice, which is one of the Alzheimer-type dementia animal models. Here, the 5×FAD mice, which is one of the Alzheimer-type dementia animal models, were provided in Korea and used.
Drug administration and behavioral evaluation were conducted on the same schedule as in FIG. […] Immediately after the end of the administration, a Morris water maze test, which is a behavioral experiment that can evaluate memory and learning ability, was conducted.
The Morris water maze test was performed as described in Behay. Brain Res. (155, 185-196) (refer to Behay. Brain Res., 155, 185-196). A water tank used in the water maze test is a cylindrical tank with a diameter of 90 cm and a height of 60 cm, and filled with water in which milk powder is diluted at 23±2[…] during a test period. In the tank, a transparent platform was installed 1 cm below the water surface, and four signs were placed outside the tank. The motion trajectory of a mouse was analyzed through a video tracking system (Smart3.0, Panlab, USA).
During the trial period, the mice were placed into the water tank at four randomly selected starting points toward the side where the platform was not shown. In each trial, an escape latency, which is the time to find the platform after the mouse is put into the water tank, was recorded, and when finding the platform, the mouse was allowed to stay on the platform for 10 seconds and then moved to a home cage. […] Each trial was performed four times a day for 5 days.
A probe test was conducted on the last […] of the test. After the platform was removed, the test was performed by allowing a mouse to swim in a water tank for 60 seconds and recording the time to first enter the location of the platform and how many times the mouse passed the location.

[2] = 1 mg/kg and 2.5 mg/kg intraperitoneal, compared with Veh group

## CC(C)c1ccc2oc3nc(N)c(C(=O)O)cc3c(=O)c2c1 [amlexanox, 2-amino-7-isopropyl-5-oxo-5H-[1]benzopyrano[2,3-b] pyridine-3-carboxylic acid]
Cathepsin B
  time to restore lysosomal activity of cathepsin B to the original state: ≤ 60 min
PDE3
  inhibitory effect specific for PDE3: significant inhibitory effect
GFP-tagged mHttQ protein
  GFP expression (aggregated GFP-mHttQ protein): decrease
Cathepsin L
  time to restore lysosomal activity of cathepsin L to the original state: ≤ 60 min
All PDE isoforms
  reducing efficacy for all PDE isoforms: excellent reducing efficacy
P301L tau
  accumulation of toxic protein Tau: reduced
[1]
  aggregation of amyloid beta protein: inhibited
5×FAD mice; [2]
  number of passing the target point: increases
  time to find the target point: increase
5×FAD mice; AMX-administered
  memory and learning ability: improved
